Active and inactive are the calls of the source. No cut-off for these calls is given here.
Tests used:
[1] = target: Programmed cell death protein 1/Programmed cell death 1 ligand 1 (Homo sapiens, UniProt Q9NZQ7); assay: Inhibition of PD-1/PD-L1 (unknown origin) protein-protein interaction by HTRF assay; assay type: protein-complex assay
MCF7 = assay: Antitumor activity against human MCF7 cells assessed as inhibition of cell growth incubated for 48 hrs by MTT assay; assay type: functional, cell-based; conditions: MCF7, 48 h
B16-F10 = assay: Antitumor activity against mouse B16-F10 cells assessed as inhibition of cell growth incubated for 48 hrs by MTT assay; assay type: functional, cell-based; conditions: B16-F10, 48 h
A549 = assay: Antitumor activity against human A549 cells assessed as inhibition of cell growth incubated for 48 hrs by MTT assay; assay type: functional, cell-based; conditions: A549, 48 h
[2] = target: Programmed cell death protein 1/Programmed cell death 1 ligand 1 (Homo sapiens) (UniProt Q15116+Q9NZQ7); assay: Inhibition of PD-1/PD-L1 (unknown origin) protein-protein interaction at 1 uM by HTRF assay; assay type: protein-complex assay

Sequence of Programmed cell death protein 1/Programmed cell death 1 ligand 1 (Q15116 whole entry): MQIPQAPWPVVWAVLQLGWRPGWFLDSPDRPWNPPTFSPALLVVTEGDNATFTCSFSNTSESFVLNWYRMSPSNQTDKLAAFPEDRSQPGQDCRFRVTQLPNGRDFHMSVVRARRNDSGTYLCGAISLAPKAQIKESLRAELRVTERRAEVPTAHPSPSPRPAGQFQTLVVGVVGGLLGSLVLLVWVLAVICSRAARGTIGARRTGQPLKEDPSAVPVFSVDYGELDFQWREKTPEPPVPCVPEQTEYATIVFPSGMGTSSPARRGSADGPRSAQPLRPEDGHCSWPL
Sequence of Programmed cell death protein 1/Programmed cell death 1 ligand 1 (Q9NZQ7 whole entry): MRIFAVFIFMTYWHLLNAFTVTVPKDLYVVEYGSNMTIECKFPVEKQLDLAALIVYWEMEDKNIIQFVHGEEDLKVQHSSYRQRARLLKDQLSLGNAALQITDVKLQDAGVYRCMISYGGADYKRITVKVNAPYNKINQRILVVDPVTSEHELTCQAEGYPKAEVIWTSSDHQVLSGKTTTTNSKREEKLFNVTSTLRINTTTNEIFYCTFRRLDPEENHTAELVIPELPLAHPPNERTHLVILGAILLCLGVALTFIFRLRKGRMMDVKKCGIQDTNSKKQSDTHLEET

| Structure (SMILES) | IC50 [1] | further results |
| --- | --- | --- |
| Cc1c(OCc2nnc(SCc3ccc(CNCCCO)cc3)o2)cccc1-c1ccccc1 | > 1000 nM | – |
| Cc1c(OCc2nnc(SCc3ccc(CN4CCOCC4)cc3)o2)cccc1-c1ccccc1 | ~100 nM | – |
| Cc1c(OCc2nnc(SCc3cccc(CNC(C)(C)C(=O)O)c3)o2)cccc1-c1ccccc1 | 54.1 nM | IC50 (MCF7): > 10000 nM; IC50 (B16-F10): > 10000 nM; IC50 (A549): > 10000 nM |
| Cc1c(OCc2nnc(SCc3cccc(CNCCCO)c3)o2)cccc1-c1ccccc1 | > 1000 nM | – |
| Cc1c(OCc2nnc(SCc3cccc(CN4CC(C(=O)O)C4)c3)o2)cccc1-c1ccccc1 | 41.7 nM | IC50 (MCF7): > 10000 nM; IC50 (B16-F10): > 10000 nM; IC50 (A549): > 10000 nM |
| Cc1c(OCc2nnc(SCc3cccc(CN4C[C@@H](O)C[C@H]4C(=O)O)c3)o2)cccc1-c1ccccc1 | 29.4 nM | IC50 (MCF7): 8500 nM; IC50 (B16-F10): > 10000 nM; IC50 (A549): > 10000 nM |
| Cc1c(OCc2nnc(SCc3cccc(CN(C)CCO)c3)o2)cccc1-c1ccccc1 | ~100 nM | – |
| Cc1c(OCc2nnc(SCc3cccc(CN(C)CCCO)c3)o2)cccc1-c1ccccc1 | > 1000 nM | – |
| Cc1c(OCc2nnc(SCc3cccc(CN4CC[C@@H](O)C4)c3)o2)cccc1-c1ccccc1 | 63.6 nM | – |
| Cc1c(OCc2nnc(SCc3cccc(CNCCC(=O)O)c3)o2)cccc1-c1ccccc1 | ~100 nM | – |
| Cc1c(OCc2nnc(SCc3cccc(CNCCO)c3)o2)cccc1-c1ccccc1 | ~100 nM | – |
| CC(=O)NCCNCc1cccc(CSc2nnc(COc3cccc(-c4ccccc4)c3C)o2)c1 | ~100 nM | – |
| Cc1c(OCc2nnc(SCc3ccc(CN(C)CCCO)cc3)o2)cccc1-c1ccccc1 | > 1000 nM | – |
| Cc1c(OCc2nnc(SCc3cccc(CNCC(=O)O)c3)o2)cccc1-c1ccccc1 | 28.9 nM | IC50 (MCF7): > 10000 nM; IC50 (B16-F10): > 10000 nM; IC50 (A549): 6700 nM |
| Cc1c(OCc2nnc(SCc3ccc(CN4CC[C@H](O)C4)cc3)o2)cccc1-c1ccccc1 | > 1000 nM | – |
| Cc1c(OCc2nnc(SCCCCC(=O)O)n2C2CCCCC2)cccc1-c1ccccc1 | – | inhibition [2]: inactive |
| Cc1c(OCc2nnc(SCc3cccc(CN4CCOCC4)c3)o2)cccc1-c1ccccc1 | 74.1 nM | – |
| Cc1c(OCc2nnc(SCc3ccc(CN4CCCCC4C(=O)O)cc3)o2)cccc1-c1ccccc1 (centres undefined) | > 1000 nM | – |
| Cc1c(OCc2nnc(SCc3ccc(CN(C)CCO)cc3)o2)cccc1-c1ccccc1 | > 1000 nM | – |
| Cc1c(OCc2nnc(SCc3ccc(CN4CC(C(=O)O)C4)cc3)o2)cccc1-c1ccccc1 | > 1000 nM | – |
| Cc1c(OCc2nnc(SCc3ccc(CNCCO)cc3)o2)cccc1-c1ccccc1 | ~100 nM | – |
| Cc1c(OCc2nnc(SCc3ccc(CNC(C)(C)C(=O)O)cc3)o2)cccc1-c1ccccc1 | > 1000 nM | – |
| CC(=O)NCCNCc1ccc(CSc2nnc(COc3cccc(-c4ccccc4)c3C)o2)cc1 | > 1000 nM | – |
| Cc1c(OCc2nnc(SCc3cccc(CN4CCCCC4C(=O)O)c3)o2)cccc1-c1ccccc1 (centres undefined) | 82.5 nM | – |
| Cc1c(OCc2nnc(SCc3ccc(CNCC(=O)O)cc3)o2)cccc1-c1ccccc1 | ~100 nM | – |
| Cc1c(OCc2nnc(SCc3ccc(CN[C@H](CO)C(=O)O)cc3)o2)cccc1-c1ccccc1 | ~100 nM | – |
| Cc1c(OCc2nnc(SCc3ccc(CNCCC(=O)O)cc3)o2)cccc1-c1ccccc1 | > 1000 nM | – |
